In data set [1] the target is T1, Edmanase (Edman degradation enzyme, modified cruzain) (Trypanosoma cruzi, UniProt P25779, A260C/C147G/G187S/L282Y).
T1 construct: His tag; made in house; host or cells: E. coli BL-21(De3), pet42(a)
It is filed as biochemical. To be noted: PITC-derivatized X-AMC substrate, 30 degrees, excitation 370 nm, emission 460 nm. How it is done:
(§1) Single amino acid, aminomethylcoumarin (AMC) containing compounds were obtained from BAChem (Bubendorf, Switzerland). These included Arg-AMC, Asn-AMC, Phe-AMC, Met-AMC, Ala-AMC, and Pro-AMC. Phenylisothiocyanate (PITC) was purchased from Thermo-scientific and coupled to the N-terminus of each substrate by incubating for 10 minutes at room temperature in a 100 μL solution of acetonitrile:pyridine:water (10:5:3) with 5 μL of PITC. The derivatized substrate was then dried by rotary evaporation and suspended in 250 μL of 1× Phosphate Buffered Saline (PBS).
(§2) The ability of the Edman degradation enzyme to perform N-terminal cleavage on six substrates of the form Ed-X-AMC, where Ed denotes the Edman reagent, X is an amino acid from the set (Ala, […], Phe, Met, Pro, Arg), and AMC is the fluorogenic […] group was characterized. Cleavage of the X-AMC bond was monitored by the appearance of fluorescence (FIG. 6).
(§3) All kinetic measurements were performed in a 96-well corning plate on a BioTek Synergy2 plate reader at 30 degrees. Reactions were started by adding 5-20 μL of purified enzyme to 100 μL of 10 mM substrate solution. Final enzyme concentration was between 1 nM and 100 nM, depending on the experiment. Fluorescence of the cleaved product was measured by exciting at 370 nm (30 second intervals for 1-10 hours) and monitoring emissions at 460 nm. A standard curve using AMC from Invitrogen was referenced quantitate the amount of product formation.

In data set [2] the target is Edmanase (Edman degradation enzyme; Trypanosoma cruzi cruzain variant C25G/G65S/A138C/L160Y, SEQ ID NO: 29) (Trypanosoma cruzi, UniProt P25779, A260C/A295H/A296K/C147G/E217T/G187S/G216A/L282Y/N191D/Q141S/Q281S/S151A). In kind it is biochemical. The conditions noted are these: Ed-X-AMC (PITC-derivatized) substrate; 30 degrees; 1 nM-100 nM enzyme; excitation 370 nm, emission 460 nm.
Text: (§4) A synthetic gene containing the Edman degradation enzyme was purchased from GenScript. The gene encoded a modified version of the cruzian enzyme of T. cruzi having the following substitution mutations: C25G, G65S, A138C, and L160Y.
(§5) The gene was inserted between an NdeI andan XhoI site in a pet42(a) (Novagen) expression vector and transformed into E. coli, BL-21(De3) chemically competent cells. Protein was then over-expressed following Studier's auto-induction protocol. Bacterial cells were harvested by centrifugation of the cell culture at 5000 rpm and 4° C. for 10 minutes. Cells were then suspended in 1×PBS with 10% glycerol and 6M guanidine chloride, pH 7.4. Cells were then lysed by sonication (15 seconds at 20% power, 8 times on ice). The cell lysate was centrifuged at 18000 rpm, 4 degrees for 20 minutes. The supernatant was then filtered through a 0.2 μm cellulose acetate filter. The filtered lysate was loaded onto a 5 mL HisTrap (Ni-NTA) column and washed with 5 column volumes of binding buffer (50 mM Tris-HCl, 150 mM NaCl, 6M guanidine chloride, 25 mM imidazole). Bound protein was then eluted in 50 mM Tris-HCl, 150 mM NaCl, 6M guanidine chloride, 500 mM imidazole. Purified fractions were prepared for SDS-PAGE analysis by mixing 2 parts sample with 1 part 4× loading dye. Samples were analyzed on 16% SDS-PAGE precast gels, and visualized by Coomassie staining. The purified protein was then refolded by successive, overnight dialyses into 1×PBS containing 5M, 3M, 1M, 0.5M, and 0M guanidine chloride. Protein concentration was determined using the calculated molar extinction coefficient and measuring the A280 on an ND-8000 spectrophotometer (Thermo Fisher Scientific).
as §1, with “(PBS). Inhibitor compound, 1-(2-anilino-5-methyl-1,3-thiazol-4-yl)-ethanone, was ordered from Sigma-Aldrich (St. Louis, MO).” for “(PBS).”
as §2, §3

Data set [3] has as its target T2, peptides (Thermus thermophilus, UniProt Q5SGX2, A229N/A231G/F152V/F205A/F336A/G338T/H142N/H143G/H212A/H232D/H287G/I228V/K234Y/K289N/L100D/L154K/L165D/L303D/L340G/M230E/W153G/Y257T).
T2 construct: a truncated version of wild-type Thermus Thermophilus PheRS (residues 86-350)
As to the kind of experiment: Binding of Phe NAAB mutant to peptides compared with wild-type protein.

Data set [4] concerns Cc1cc(=O)oc2cc(NC(=O)[C@H](CCCNC(=N)N)NC(=S)Nc3ccccc3)ccc12. As to the kind of experiment: purified protein, by the assay type. In kind it is biochemical, Trypanosoma cruzi. The conditions noted are these: other: Ed-X-AMC (PITC-derivatized) substrate; 30 degrees; 1 nM-100 nM enzyme; excitation 370 nm, emission 460 nm; pH 7.4; 30.0 °C.
Text: as §4, §5
as §1, with “(PBS). Inhibitor compound, 1-(2-anilino-5-methyl-1,3-thiazol-4-yl)-ethanone, was ordered from Sigma-Aldrich (St. Louis, MO).” for “(PBS).”
as §2, §3

In data set [5] the test system is Cc1cc(=O)oc2cc(NC(=O)[C@H](Cc3ccccc3)NC(=S)Nc3ccccc3)ccc12. The data set can be described thus: purified protein, by the assay type. In kind it is biochemical, Trypanosoma cruzi. The conditions noted are these: other: Ed-X-AMC (PITC-derivatized) substrate; 30 degrees; 1 nM-100 nM enzyme; excitation 370 nm, emission 460 nm; pH 7.4; 30.0 °C.
Text: as §4, §5
as §1, with “(PBS). Inhibitor compound, 1-(2-anilino-5-methyl-1,3-thiazol-4-yl)-ethanone, was ordered from Sigma-Aldrich (St. Louis, MO).” for “(PBS).”
as §2, §3

The target of data set [6] is N-terminal amino acid of peptides. The data set can be described thus: Biolayer interferometry binding assays between peptides and purified NAABs. To be noted: 1×PBS; dissociation rate constant divided by association rate constant, 1:1 model; read-out: Measured Affinity Constants.
Protocol: Real time binding assays between peptides and purified NAABs were performed using biolayer interferometry on a Blitz system (Fortebio, Menlo Park, CA). This system monitors interference of light reflected from the surface of a fiber optic sensor to measure the thickness of molecules bound to the sensor surface. Sensors coated with peptides were allowed to bind to the NAABs in 1×PBS at several different protein concentrations. Binding kinetics were calculated using the Blitz software package, which fit the observed binding curves to a 1:1 binding model to calculate the association rate constants. NAABs were allowed to dissociate by incubation of the sensors in 1×PBS. Dissociation curves were fit to a 1:1 model to calculate the dissociation rate constants. Binding affinities were calculated as the kinetic dissociation rate constant divided by the kinetic association rate constant.
Each square in the binding matrix represents the binding affinity for a single NAAB with an N-terminal amino acid as measured by biolayer interferometry. Each row in the matrix contains all the binding data for a single NAAB, and each column contains the binding data for a single N-terminal amino acid (shown by single-letter code).

T2 sequence (Q5SGX2 other isoform, or with tags, fused parts or gaps with the stated changes): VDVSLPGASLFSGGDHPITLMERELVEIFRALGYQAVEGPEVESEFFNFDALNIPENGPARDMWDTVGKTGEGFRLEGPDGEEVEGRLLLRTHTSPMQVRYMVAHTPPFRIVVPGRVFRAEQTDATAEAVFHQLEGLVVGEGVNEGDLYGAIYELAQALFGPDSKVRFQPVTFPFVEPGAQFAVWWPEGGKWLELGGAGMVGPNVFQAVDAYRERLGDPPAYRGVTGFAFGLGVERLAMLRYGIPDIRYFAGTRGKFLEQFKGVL

Consider `C[C@H](N)C(=O)O` [Alanine], for which, in data set [1], the Kcat came out at 0.55 s⁻¹ and the Km was found to be 21.3 µM.

`Cc1cc(=O)oc2cc(NC(=O)[C@H](CCCNC(=N)N)NC(=S)Nc3ccccc3)ccc12` [Arginine]: the Kcat in data set [2] was found to be 0.087 s⁻¹.

`CSCC[C@H](NC(=S)Nc1ccccc1)C(=O)Nc1ccc2c(C)cc(=O)oc2c1` [Methionine]: in data set [2], the Kcat came out at 0.54 s⁻¹ and the Km was found to be 272 µM.

Turning to `N[C@@H](Cc1ccccc1)C(=O)O` [Phenylalanine], the “binding to peptides compared to the wild-type protein” value in data set [3] was “Tighter binding”.

`O=C(O)[C@@H]1CCCN1` [Proline]: in data set [1], the Kcat is 0.0014 s⁻¹ and the Km came out at 252 µM.

In the case of “Edmanase (Edman degradation enzyme; Trypanosoma cruzi cruzain variant C25G/G65S/A138C/L160Y, SEQ ID NO: 29) (Trypanosoma cruzi; A260C/A295H/A296K/C147G/E217T/G187S/G216A/L282Y/N191D/Q141S/Q281S/S151A)”, the Km in data set [4] came to 167.8 µM. In data set [5], the Km amounted to 122.8 µM, the kcat amounted to 0.47 s⁻¹ and the kcat/Km is 3800 M⁻¹ s⁻¹.

As to Glutamate, the Kd in data set [6] came out at 2120 nM.

These data come from patent US12493042B2, “Molecules and methods for iterative polypeptide analysis and processing” (priority 2013, dated 2025).
